Assay results from patent US20220195432A9 (priority 2020, published 2022).

Test system: SARS-CoV2
Experiment: SARS-CoV2 infection of human ACE2 mice, paquinimod nasal drop group versus control
Format: in vivo
Conditions: human ACE2 mice, paquinimod nasal drop group compared with control group, FIG. 17

CCc1cccc2c1c(O)c(C(=O)N(CC)c1ccccc1)c(=O)n2C [paquinimod]
resistance to SRAS-CoV2: significantly more resistant
